In patent US8394952B2 (Vertex Pharmaceuticals Incorporated, priority 2006, dated 2013) one finds Ki data, which are given here for 28 compounds.

This assay deals with Plk1 (Homo sapiens, UniProt P53350). Description: biochemical.
Plk1, sequence (P53350 20-338): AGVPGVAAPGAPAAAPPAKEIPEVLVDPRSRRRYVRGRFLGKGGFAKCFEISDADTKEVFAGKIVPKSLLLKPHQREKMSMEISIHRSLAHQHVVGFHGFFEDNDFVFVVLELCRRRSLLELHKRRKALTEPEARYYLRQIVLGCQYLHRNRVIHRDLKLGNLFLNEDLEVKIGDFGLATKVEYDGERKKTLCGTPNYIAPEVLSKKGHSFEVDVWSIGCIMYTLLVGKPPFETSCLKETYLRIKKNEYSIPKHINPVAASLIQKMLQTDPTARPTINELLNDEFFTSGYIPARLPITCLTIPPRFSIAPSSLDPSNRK

One may read the Ki as the equilibrium dissociation constant of an inhibitor or competing ligand from its target. The low end stands for a stronger hold on the target, the high end for a looser hold on the target. `COc1cc(C(=O)Nc2ccncc2)ccc1Nc1ncc2c(n1)N(C1CCCC1)CC(C)(C)C(=O)N2C` [Compound I-24, 4-(9-cyclopentyl-6,7,8,9-tetrahydro-5,7,7-trimethyl-6-oxo-5H-pyrimido[4,5-b][1,4]diazepin-2-ylamino)-3-methoxy-N-(pyridin-4-yl)benzamide] registered an inhibitory constant (Ki) of less than 10 nM.

As for `COc1cc(C(=O)NC2CN(C)C2)ccc1Nc1ncc2c(n1)N(C1CCCC1)CC(C)(C)C(=O)N2C` [Compound I-25, 4-(9-cyclopentyl-6,7,8,9-tetrahydro-5,7,7-trimethyl-6-oxo-5H-pyrimido[4,5-b][1,4]diazepin-2-ylamino)-3-methoxy-N-(1-methylazetidin-3-yl)benzamide], the Ki was less than 10 nM.

For `COc1cc(C(=O)N[C@@H]2CCN(C)C2)ccc1Nc1ncc2c(n1)N(C1CCCC1)CC(C)(C)C(=O)N2C` [Compound I-26, 4-(9-cyclopentyl-6,7,8,9-tetrahydro-5,7,7-trimethyl-6-oxo-5H-pyrimido[4,5-b][1,4]diazepin-2-ylamino)-3-methoxy-N—((R)-1-methylpyrrolidin-3-yl)benzamide], the Ki was less than 10 nM.

The compound `COc1cc(C(=O)NCCc2cncn2C)ccc1Nc1ncc2c(n1)N(C1CCCC1)CC(C)(C)C(=O)N2C` [Compound I-27, 4-(9-cyclopentyl-6,7,8,9-tetrahydro-5,7,7-trimethyl-6-oxo-5H-pyrimido[4,5-b][1,4]diazepin-2-ylamino)-3-methoxy-N-(2-(1-methyl-1H-imidazo-5-yl)ethyl)benzamide] displayed a Ki of less than 10 nM.

On to `COc1cc(C(=O)NCCCN2CCN(C)CC2)ccc1Nc1ncc2c(n1)N(C1CCCC1)CC(C)(C)C(=O)N2C` [Compound I-28, 4-(9-cyclopentyl-6,7,8,9-tetrahydro-5,7,7-trimethyl-6-oxo-5H-pyrimido[4,5-b][1,4]diazepin-2-ylamino)-3-methoxy-N-(3-(4-methylpiperazin-1-yl)propyl)benzamide], for which the Ki is less than 10 nM.

In turn, `CNC(=O)c1ccc(Nc2ncc3c(n2)N(C2CC2)CC(C)(C)C(=O)N3C)c(OC)c1` [Compound I-30, 4-(9-cyclopropyl-6,7,8,9-tetrahydro-5,7,7-trimethyl-6-oxo-5H-pyrimido[4,5-b][1,4]diazepin-2-ylamino)-3-methoxy-N-methylbenzamide] showed a Ki of 10 to 100 nM.

For the compound `COc1cc(C(=O)NCCc2cn(C)cn2)ccc1Nc1ncc2c(n1)N(C1CCCC1)CC(C)(C)C(=O)N2C` [Compound I-31, 4-(9-cyclopentyl-6,7,8,9-tetrahydro-5,7,7-trimethyl-6-oxo-5H-pyrimido[4,5-b][1,4]diazepin-2-ylamino)-3-methoxy-N-(2-(1-methyl-1H-imidazo-4-yl)ethyl)benzamide], the Ki was less than 10 nM.

As for `COc1cc(C(=O)N2CC[C@H](F)C2)ccc1Nc1ncc2c(n1)N(C1CCCC1)CC(C)(C)C(=O)N2C` [Compound I-32, 9-Cyclopentyl-2-[4-((S)-3-fluoro-pyrrolidine-1-carbonyl)-2-methoxyphenylamino]-5,7,7-trimethyl-5,7,8,9-tetrahydropyrimido[4,5-b][1,4]diazepin-6-one], the Ki is less than 10 nM.

With `COc1cc(C(=O)NCCN2CCOCC2)ccc1Nc1ncc2c(n1)N(C1CCCC1)CC(C)(C)C(=O)N2C` [Compound I-33, 4-(9-cyclopentyl-6,7,8,9-tetrahydro-5,7,7-trimethyl-6-oxo-5H-pyrimido[4,5-b][1,4]diazepin-2-ylamino)-3-methoxy-N-(2-morpholinoethyl)benzamide], the Ki is less than 10 nM.

`COc1cc(C(=O)NCCN2CCCC2)ccc1Nc1ncc2c(n1)N(C1CCCC1)CC(C)(C)C(=O)N2C` [Compound I-34, 4-(9-cyclopentyl-6,7,8,9-tetrahydro-5,7,7-trimethyl-6-oxo-5H-pyrimido[4,5-b][1,4]diazepin-2-ylamino)-3-methoxy-N-(2-(pyrrolidin-1-yl)ethyl)benzamide] yielded a Ki of less than 10 nM.

The compound `CNC(=O)c1ccc(Nc2ncc3c(n2)N(C(C)C)CC(C)(C)C(=O)N3C)c(OC)c1` [Compound I-35, 4-(6,7,8,9-tetrahydro-9-isopropyl-5,7,7-trimethyl-6-oxo-5H-pyrimido[4,5-b][1,4]diazepin-2-ylamino)-3-methoxy-N-methylbenzamide] displayed a Ki of 10 to 100 nM.

In the case of `CNC(=O)c1ccc(Nc2ncc3c(n2)N(C2CCCC2)CC(C)(C)c2nncn2-3)c(OC)c1` [Compound I-36, 4-(6-Cyclopentyl-4,4-dimethyl-5,6-dihydro-4H-2,3,6,7,9,10b-hexaazabenzo[e]azulen-8-ylamino)-3-methoxy-N-methylbenzamide], the Ki is less than 10 nM.

On to `COc1cc(C(=O)NCCN2CC[C@H](F)C2)ccc1Nc1ncc2c(n1)N(C1CCCC1)CC(C)(C)C(=O)N2C` [Compound I-37, 4-(9-cyclopentyl-6,7,8,9-tetrahydro-5,7,7-trimethyl-6-oxo-5H-pyrimido[4,5-b][1,4]diazepin-2-ylamino)-N-(2-((S)-3-fluoropyrrolidin-1-yl)ethyl)-3-methoxybenzamide], for which the Ki was less than 10 nM.

For the compound `COc1cc(C(=O)NCCN2CCC2)ccc1Nc1ncc2c(n1)N(C1CCCC1)CC(C)(C)C(=O)N2C` [Compound I-38], the Ki was less than 10 nM.

Turning to `COc1cc(C(=O)NCCOC(=O)N2CC[C@@H](F)C2)ccc1Nc1ncc2c(n1)N(C1CCCC1)CC(C)(C)C(=O)N2C` [Compound I-39, (R)-3-Fluoro-pyrrolidine-1-carboxylic acid 2-[4-(9-cyclopentyl-5,7,7-trimethyl-6-oxo-6,7,8,9-tetrahydro-5H-pyrimido[4,5-b][1,4]diazepin-2-ylamino)-3-methoxybenzoylamino]-ethyl ester], the Ki is less than 10 nM.

For `CNC(=O)c1ccc(Nc2ncc3c(n2)N(c2ccccc2)CC(C)(C)C(=O)N3C)c(OC)c1` [Compound I-40, 4-(6,7,8,9-tetrahydro-5,7,7-trimethyl-6-oxo-9-phenyl-5H-pyrimido[4,5-b][1,4]diazepin-2-ylamino)-3-methoxy-N-methylbenzamide], the Ki lay in the range of 10 to 100 nM.

The compound `CNC(=O)c1ccc(Nc2ncc3c(n2)N(C2CCCC2)CCc2nncn2-3)c(OC)c1` [Compound I-42, 4-(6-Cyclopentyl-5,6-dihydro-4H-2,3,6,7,9,10b-hexaaza-benzo[e]azulen-8-ylamino)-3-methoxy-N-methylbenzamide] displayed a Ki of 10 to 100 nM.

Compound `CN1C(=O)C(C)(C)CN(C2CCCC2)c2nc(Nc3ccc4nc[nH]c4c3)ncc21` [Compound I-43, 2-(1H-benzo[d]imidazol-6-ylamino)-9-cyclopentyl-8,9-dihydro-5,7,7-trimethyl-5H-pyrimido[4,5-b][1,4]diazepin-6(7H)-one] registered a Ki of 10 to 100 nM.

For `CN1C(=O)C(C)(C)CN(C2CCCC2)c2nc(Nc3ccc4ncsc4c3)ncc21` [Compound I-44, 2-(benzo[d]thiazol-6-ylamino)-9-cyclopentyl-8,9-dihydro-5,7,7-trimethyl-5H-pyrimido[4,5-b][1,4]diazepin-6(7H)-one], the Ki lay within 10 to 100 nM.

In turn, `CN1C(=O)C(C)(C)CN(C2CCCC2)c2nc(Nc3ccc4c(c3)CC(=O)N4)ncc21` [Compound I-45, 2-(2-oxoindolin-5-ylamino)-9-cyclopentyl-8,9-dihydro-5,7,7-trimethyl-5H-pyrimido[4,5-b][1,4]diazepin-6(7H)-one] registered a Ki of 10 to 100 nM.

As to `CNC(=O)c1cccc(Nc2ncc3c(n2)N(C2CCCC2)CC(C)(C)C(=O)N3C)c1` [Compound I-46, 3-(9-cyclopentyl-6,7,8,9-tetrahydro-5,7,7-trimethyl-6-oxo-5H-pyrimido[4,5-b][1,4]diazepin-2-ylamino)-N-methylbenzamide], the Ki lay within 10 to 100 nM.

`CN1C(=O)C(C)(C)CN(C2CCCC2)c2nc(Nc3ccc4cn[nH]c4c3)ncc21` [Compound I-47, 2-(1H-indazo-6-ylamino)-9-cyclopentyl-8,9-dihydro-5,7,7-trimethyl-5H-pyrimido[4,5-b][1,4]diazepin-6(7H)-one]: the Ki was less than 10 nM.

As to `CN1C(=O)C(C)(C)CN(C2CCCC2)c2nc(Nc3ccc(-n4ccnc4)cc3)ncc21` [Compound I-48, 2-(4-(1H-imidazol-1-yl)phenylamino)-9-cyclopentyl-8,9-dihydro-5,7,7-trimethyl-5H-pyrimido[4,5-b][1,4]diazepin-6(7H)-one], the Ki is less than 10 nM.

On to `CN1C(=O)C(C)(C)CN(C2CCCC2)c2nc(Nc3ccc(-n4cncn4)cc3)ncc21` [Compound I-49, 2-(4-(1H-1,2,4-triazol-1-yl)phenylamino)-9-cyclopentyl-8,9-dihydro-5,7,7-trimethyl-5H-pyrimido[4,5-b][1,4]diazepin-6(7H)-one], for which the Ki lay within 10 to 100 nM.

`CNC(=O)c1ccc(Nc2ncc3c(n2)N(C2CCCC2)CC(C)(C)C(=O)N3C)c(OC(C)C)c1` [Compound I-50, 4-(9-cyclopentyl-6,7,8,9-tetrahydro-5,7,7-trimethyl-6-oxo-5H-pyrimido[4,5-b][1,4]diazepin-2-ylamino)-3-isopropoxy-N-methylbenzamide]: the Ki was in the range of 10 to 100 nM.

`CC(C)Oc1cc(C(=O)NC2CCN(C)CC2)ccc1Nc1ncc2c(n1)N(C1CCCC1)CC(C)(C)C(=O)N2C` [Compound I-51, 4-(9-cyclopentyl-6,7,8,9-tetrahydro-5,7,7-trimethyl-6-oxo-5H-pyrimido[4,5-b][1,4]diazepin-2-ylamino)-3-isopropoxy-N-(1-methylpiperidin-4-yl)benzamide] came in with a Ki of less than 10 nM.

As for `COc1cc(C(=O)NC2CN(C(C)C)C2)ccc1Nc1ncc2c(n1)N(C1CCCC1)CC(C)(C)C(=O)N2C` [Compound I-52, 4-(9-cyclopentyl-6,7,8,9-tetrahydro-5,7,7-trimethyl-6-oxo-5H-pyrimido[4,5-b][1,4]diazepin-2-ylamino)-N-(1-isopropylazetidin-3-yl)-3-methoxybenzamide], the Ki is less than 10 nM.

As to `COc1cc(C(=O)NC2CN(CC3CC3)C2)ccc1Nc1ncc2c(n1)N(C1CCCC1)CC(C)(C)C(=O)N2C` [Compound I-53, 4-(9-cyclopentyl-6,7,8,9-tetrahydro-5,7,7-trimethyl-6-oxo-5H-pyrimido[4,5-b][1,4]diazepin-2-ylamino)-N-(1-(cyclopropylmethyl)azetidin-3-yl)-3-methoxybenzamide], the Ki is less than 10 nM.
